Converted amounts (≈) assume the structure as drawn.
Columns and labels:
[1] = solubility of the dye in water; assay type: physicochemical
[2] = absorption of the dye: lambda max and E max; assay type: physicochemical

Structure (SMILES) | solubility ([1]; 25° C., pH 9.5) [mg/mL] | E max [2] | lambda max [2] [nm] | solubility ([1]; 25° C.) [mg/mL] | solubility ([1]; temperature and pH not given) [mg/mL] | solubility ([1]; 25° C., pH 8.5) [mg/mL]
O=C(O)c1ccc(Nc2ccc3cc(S(=O)(=O)O)c(N=Nc4ccc(N=Nc5cccc(C(=O)O)c5)c5ccccc45)c(O)c3c2)cc1 [Example 1] | ~80 (≈ 121 mM) | about 24,500 | 558 | – | – | –
O=C(O)c1ccc(N=Nc2ccc(N=Nc3c(S(=O)(=O)O)cc4ccc(Nc5ccc(C(=O)O)cc5)cc4c3O)c3ccccc23)cc1 [Example 2] | – | about 22,000 | 567 | ~80 (≈ 121 mM) | – | –
O=C(O)c1ccc(N=Nc2ccc(N=Nc3c(S(=O)(=O)O)cc4ccc(Nc5cccc(C(=O)O)c5)cc4c3O)c3ccccc23)cc1 [Example 3] | – | about 23,500 | 553 | – | ~80 (≈ 121 mM) | –

Results, then the molecule that gave them:

solubility ([1]; 25° C., pH 9.5) [mg/mL] | E max [2] | lambda max [2] [nm] | solubility ([1]; 25° C.) [mg/mL] | solubility ([1]; temperature and pH not given) [mg/mL] | solubility ([1]; 25° C., pH 8.5) [mg/mL] | Structure (SMILES)
– | about 24,000 | 588 | – | – | 130 to 150 (≈ 175 to 202 mM) | O=C(O)c1ccc(Nc2ccc3cc(S(=O)(=O)O)c(N=Nc4ccc(N=Nc5cccc(C(=O)O)c5)c5ccc(S(=O)(=O)O)cc45)c(O)c3c2)cc1 [Example 4]
– | about 15,000 | 578 | – | ~100 (≈ 135 mM) | – | O=C(O)c1cccc(N=Nc2ccc(N=Nc3c(S(=O)(=O)O)cc4ccc(Nc5cccc(C(=O)O)c5)cc4c3O)c3cc(S(=O)(=O)O)ccc23)c1 [Example 6]

From patent US5281263A, “Azo dyes containing a carboxy group” (Imperial Chemical Industries PLC, priority 1991, dated 1994)
